# Reference: PubChem BioAssay (NCI)
# Several values for one entry are separate records, joined by “and”; a condition that tells them apart may be missing. Equal entries are not always repeated.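 The compound was tested at five concentrations on cells cultured in 96-well plates, with a 48-hour exposure period. Here, GI50 denotes the concentration required for 50% inhibition of growth. TGI denotes the concentration required for complete inhibition of growth.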
# Key:
# Assay in all cases: NCI anticancer screen, dose series, 48 h
# HCT-116 colon = system: HCT-116 colon
# KM12 colon = system: KM12 colon
# M14 melanoma = system: M14 melanoma
# NCI-H460 lung = system: NCI-H460 lung
# NCI/ADR-RES ovarian = system: NCI/ADR-RES ovarian
# OVCAR-4 ovarian = system: OVCAR-4 ovarian
# SK-MEL-5 melanoma = system: SK-MEL-5 melanoma
# SNB-19 CNS = system: SNB-19 CNS
# SW-620 colon = system: SW-620 colon
# RPMI-8226 leukemia = system: RPMI-8226 leukemia
SMILES,TGI (HCT-116 colon),TGI (KM12 colon),TGI (M14 melanoma),TGI (NCI-H460 lung),TGI (NCI/ADR-RES ovarian),TGI (OVCAR-4 ovarian),TGI (SK-MEL-5 melanoma),TGI (SNB-19 CNS),TGI (SW-620 colon),TGI (RPMI-8226 leukemia),GI50 (HCT-116 colon),GI50 (KM12 colon),GI50 (M14 melanoma),GI50 (NCI-H460 lung),GI50 (NCI/ADR-RES ovarian),GI50 (OVCAR-4 ovarian),GI50 (RPMI-8226 leukemia),GI50 (SK-MEL-5 melanoma),GI50 (SNB-19 CNS),GI50 (SW-620 colon)
NC(CCc1ccccc1)(C(=O)O)c1ccccc1 (stereo unspecified),> 100 µM,> 100 µM,> 100 µM,> 100 µM,> 100 µM,> 100 µM,> 100 µM,> 100 µM,> 100 µM,,,,,,,,,,,
NCCCCN,> 100 µM,38.6 µM,> 100 µM,> 100 µM,> 100 µM,51.5 µM,> 100 µM,> 100 µM,> 100 µM,,,,,,,,,,,
CC(C)c1ccc2c(c1)[C@@]1(C)CC[C@H](C)C(C)(C)C1CC2 (stereo partly specified),34.9 µM,38.4 µM,34.8 µM,36.9 µM,36.6 µM,30.3 µM,41.4 µM,35.3 µM,> 100 µM,41.1 µM,,,,,,,,,,
C[C@H](Nc1ccc(C#N)n(C)c1=O)c1cc2cc(Cl)ccc2[nH]c1=O,> 100 µM,> 100 µM,> 100 µM,> 100 µM,> 100 µM,85.6 µM,29.1 µM,> 100 µM,> 100 µM,49.3 µM,23.9 µM,38.3 µM,23.7 µM,32.8 µM,26.1 µM,19.3 µM,14.2 µM,15.6 µM,32.5 µM,46.3 µM
O=P(O)(O)OP(=O)(O)O,> 100 µM,> 100 µM,> 100 µM,> 100 µM,> 100 µM,> 100 µM,> 100 µM,> 100 µM,> 100 µM,> 100 µM,,,,,,,,,,
CC(C)(C)OC(=O)N1C[C@H](CC(=O)OCc2ccccc2)C[C@H]1C(=O)OCC(Cl)(Cl)Cl,> 50 µM,> 50 µM,> 50 µM,> 50 µM,> 50 µM,> 50 µM,8.13 µM,> 50 µM,> 50 µM,,,,,,,,,,,
COC1OC(C(=O)CP(=O)(OC)OC)C(OCc2ccccc2)C(OCc2ccccc2)C1OCc1ccccc1 (stereo unspecified),29 µM and 30.2 µM,36.6 µM and 35.7 µM,28.8 µM and 30.4 µM,31.1 µM and 29.4 µM,42.6 µM and 46 µM,28.4 µM and 36.7 µM,28.6 µM and 28.7 µM,29.7 µM and 30.3 µM,> 100 µM and 58 µM,,,,,,,,,,,
CCN(CC)/[N+]([O-])=N/OC,> 100 µM,> 100 µM,> 100 µM,> 100 µM,,,> 100 µM,> 100 µM,> 100 µM,,,,,,,,,,,
Cc1cc(O)c2c(c1O)C(=O)c1c(O)ccc(O)c1C2=O,> 100 µM,> 100 µM,> 100 µM,> 100 µM,> 100 µM,> 100 µM,> 100 µM,> 100 µM,> 100 µM,> 100 µM,,,,,,,,,,
CCOC(=O)C(=CNC(Cc1c[nH]c2ccccc12)C(=O)OC)C(=O)OCC (stereo unspecified),,,> 100 µM,> 100 µM,,,> 100 µM,> 100 µM,> 100 µM,> 100 µM,,,,,,,,,,
COc1ccc(Cc2nc3cc(Cl)ccc3o2)cc1,> 100 µM,> 100 µM,> 100 µM,> 100 µM,76.9 µM,> 100 µM,31.1 µM,> 100 µM,> 100 µM,83.9 µM,,,,,,,,,,
CCCCCCOC(=O)C(N)Cc1ccc(OC)cc1 (stereo unspecified),> 100 µM,> 100 µM,> 100 µM,> 100 µM,> 100 µM,> 100 µM,> 100 µM,> 100 µM,> 100 µM,,,,,,,,,,,
COC(=N)C(C)C,> 100 µM,> 100 µM,> 100 µM,> 100 µM,,> 100 µM,> 100 µM,> 100 µM,> 100 µM,> 100 µM,,,,,,,,,,
C/C(=C\CNc1ncnc2nc(Cl)[nH]c12)CO,> 100 µM,> 100 µM,> 100 µM,> 100 µM,> 100 µM,> 100 µM,> 100 µM,> 100 µM,> 100 µM,> 100 µM,,,,,,,,,,
O=S1c2ccccc2N=C(c2ccc3ccccc3c2)CC1c1ccccc1 (stereo unspecified),33.6 µM,28.8 µM,> 100 µM,41 µM,,56.1 µM,> 100 µM,34.9 µM,29.3 µM,94.4 µM,,,,,,,,,,
